Results published in PubChem BioAssay (NCI).
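48-hour exposure; five concentrations; linearly interpolated endpoints. Abbreviation: GI50, concentration required for 50% inhibition of growth. The concentration for full growth arrest is given as TGI.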

Experiments:
Assay in all cases: inhibition of tumour cell growth, NCI panel, 48 h
SW-620 colon = tested on: SW-620 colon
CAKI-1 renal = tested on: CAKI-1 renal
SF-268 CNS = tested on: SF-268 CNS
U251 CNS = tested on: U251 CNS
HL-60(TB) leukemia = tested on: HL-60(TB) leukemia
HCT-116 colon = tested on: HCT-116 colon
HT29 colon = tested on: HT29 colon
MOLT-4 leukemia = tested on: MOLT-4 leukemia
UACC-257 melanoma = tested on: UACC-257 melanoma
DLD-1 colon = tested on: DLD-1 colon

`CC(C)=CC(=O)N[C@H]1CC[C@]2(C)C3CC[C@]4(C)C(C(C)N(C)C)=CCC4C3CCC2[C@H]1O` (some centres undefined) showed a GI50 (SW-620 colon) of 1970 nM, a TGI (SW-620 colon) of 4550 nM and a GI50 (CAKI-1 renal) of 5630 nM. The TGI (CAKI-1 renal) was 14700 nM, the GI50 (SF-268 CNS) was 2350 nM and the TGI (SF-268 CNS) was 6630 nM. The GI50 (U251 CNS) was 3890 nM, the TGI (U251 CNS) was 15900 nM and the GI50 (HL-60(TB) leukemia) was 3340 nM. The TGI (HL-60(TB) leukemia) was 9110 nM, the GI50 (HCT-116 colon) was 1770 nM and the TGI (HCT-116 colon) was 4210 nM. It also gave a GI50 (HT29 colon) of 676 nM, a TGI (HT29 colon) of 2920 nM and a GI50 (MOLT-4 leukemia) of 2810 nM. It also gave a TGI (MOLT-4 leukemia) of 11400 nM, a GI50 (UACC-257 melanoma) of 2390 nM and a TGI (UACC-257 melanoma) of 5590 nM.

In the case of `N#C/C(=N\Nc1ccccc1)C(=O)Nc1cc(-c2ccccc2)nn1-c1ccccc1`, the GI50 (SW-620 colon) is reported as 3150 nM, the TGI (SW-620 colon) is reported as greater than 100000 nM and the GI50 (CAKI-1 renal) is reported as 2880 nM. The TGI (CAKI-1 renal) was greater than 100000 nM, the GI50 (SF-268 CNS) was 3850 nM and the TGI (SF-268 CNS) was greater than 100000 nM. The GI50 (U251 CNS) was 3140 nM, the TGI (U251 CNS) was 16000 nM and the GI50 (HL-60(TB) leukemia) was 2940 nM. For the same compound, the TGI (HL-60(TB) leukemia) was 22100 nM, the GI50 (HCT-116 colon) was 2140 nM and the TGI (HCT-116 colon) was greater than 100000 nM. For the same compound, the GI50 (HT29 colon) was 3200 nM, the TGI (HT29 colon) was 17300 nM and the GI50 (MOLT-4 leukemia) was 3750 nM. It also gave a TGI (MOLT-4 leukemia) greater than 100000 nM, a GI50 (UACC-257 melanoma) of 2470 nM and a TGI (UACC-257 melanoma) of 9930 nM.

With `CCCCCCCC(=O)SCC/C=C/[C@@H]1CC(=O)NCc2nc(cs2)C2=N[C@@](C)(CS2)C(=O)N[C@@H](C(C)C)C(=O)N1` the GI50 (SW-620 colon) was 64.5 nM, the TGI (SW-620 colon) was 5570 nM and the GI50 (CAKI-1 renal) was 2750 nM. The TGI (CAKI-1 renal) was 17600 nM, the GI50 (SF-268 CNS) was 76.9 nM and the TGI (SF-268 CNS) was greater than 50500 nM. For the same compound, the GI50 (U251 CNS) was 31.8 nM, the TGI (U251 CNS) was 364 nM and the GI50 (HL-60(TB) leukemia) was 13 nM. The TGI (HL-60(TB) leukemia) was greater than 100000 nM, the GI50 (HCT-116 colon) was less than 10 nM and the TGI (HCT-116 colon) was 35 nM. The GI50 (HT29 colon) was less than 10 nM, the TGI (HT29 colon) was 49.9 nM and the GI50 (MOLT-4 leukemia) was less than 11.2 nM. It also gave a TGI (MOLT-4 leukemia) greater than 100000 nM, a GI50 (UACC-257 melanoma) of less than 10 nM and a TGI (UACC-257 melanoma) of 39.2 nM.

Compound `Clc1ccc2nc(CI)c(CI)nc2c1` has a GI50 (SW-620 colon) of 2540 nM, a TGI (SW-620 colon) of 6620 nM and a GI50 (CAKI-1 renal) of 9560 nM. The TGI (CAKI-1 renal) was 24900 nM, the GI50 (SF-268 CNS) was 4690 nM and the TGI (SF-268 CNS) was 14300 nM. The GI50 (U251 CNS) was 2710 nM, the TGI (U251 CNS) was 7230 nM and the GI50 (HL-60(TB) leukemia) was 1230 nM. For the same compound, the TGI (HL-60(TB) leukemia) was 9060 nM, the GI50 (HCT-116 colon) was 2530 nM and the GI50 (HT29 colon) was 3740 nM. The TGI (HT29 colon) was 19600 nM, the GI50 (MOLT-4 leukemia) was 1890 nM and the TGI (MOLT-4 leukemia) was 9080 nM. For the same compound, the GI50 (UACC-257 melanoma) was 4510 nM and the TGI (UACC-257 melanoma) was 16800 nM.

`Cc1ccc(S(=O)(=O)OC(COC(=O)c2ccccc2)C(OS(=O)(=O)c2ccc(C)cc2)C(OS(=O)(=O)c2ccc(C)cc2)C(COC(=O)c2ccccc2)OS(=O)(=O)c2ccc(C)cc2)cc1` (centres undefined) was tested, and the TGI (SW-620 colon) was greater than 100000 nM, the TGI (CAKI-1 renal) was greater than 100000 nM and the TGI (SF-268 CNS) was greater than 100000 nM. The TGI (U251 CNS) was greater than 100000 nM, the TGI (HL-60(TB) leukemia) was greater than 100000 nM and the TGI (HCT-116 colon) was greater than 100000 nM. The TGI (HT29 colon) was greater than 100000 nM, the TGI (MOLT-4 leukemia) was greater than 100000 nM and the TGI (UACC-257 melanoma) was greater than 100000 nM.

Compound `CC(C(=O)c1ccccc1)C1(O)C(=O)Nc2ccc(Cl)cc21` (centres undefined) has a TGI (SW-620 colon) greater than 100000 nM, a TGI (CAKI-1 renal) greater than 100000 nM and a TGI (SF-268 CNS) greater than 100000 nM. For the same compound, the TGI (U251 CNS) was greater than 100000 nM, the TGI (DLD-1 colon) was greater than 100000 nM and the TGI (HCT-116 colon) was greater than 100000 nM. It also gave a TGI (HT29 colon) greater than 100000 nM and a TGI (UACC-257 melanoma) greater than 100000 nM.

Work on `O=C(c1ccco1)c1c(C(F)(F)F)n([O-])c2cc(C(F)(F)F)ccc2[n+]1=O` yielded a GI50 (SW-620 colon) of 498 nM, a TGI (SW-620 colon) of 1100 nM and a GI50 (CAKI-1 renal) of 1510 nM. The TGI (CAKI-1 renal) was 2970 nM, the GI50 (SF-268 CNS) was 870 nM and the TGI (SF-268 CNS) was 2660 nM. The GI50 (U251 CNS) was 460 nM, the TGI (U251 CNS) was 951 nM and the GI50 (HL-60(TB) leukemia) was 185 nM. It also gave a TGI (HL-60(TB) leukemia) of 484 nM, a GI50 (HCT-116 colon) of 230 nM and a TGI (HCT-116 colon) of 1310 nM. The GI50 (HT29 colon) was 1250 nM, the TGI (HT29 colon) was 2840 nM and the GI50 (MOLT-4 leukemia) was 77.3 nM. The TGI (MOLT-4 leukemia) was 162 nM, the GI50 (UACC-257 melanoma) was 1550 nM and the TGI (UACC-257 melanoma) was 3270 nM.

`COc1ccc(NC(=O)c2sc3nc(C)c(C(=O)/C=C/c4cccc(OC)c4)cc3c2N)cc1` was tested, and the GI50 (SW-620 colon) was 1260 nM, the TGI (SW-620 colon) was 3790 nM and the GI50 (CAKI-1 renal) was 1960 nM. It also gave a TGI (CAKI-1 renal) of 6990 nM, a GI50 (SF-268 CNS) of 2070 nM and a TGI (SF-268 CNS) of 14100 nM. It also gave a GI50 (U251 CNS) of 1010 nM, a TGI (U251 CNS) of 2140 nM and a GI50 (HL-60(TB) leukemia) of 1340 nM. It also gave a TGI (HL-60(TB) leukemia) of 4240 nM, a GI50 (HCT-116 colon) of 773 nM and a TGI (HCT-116 colon) of 1700 nM. For the same compound, the GI50 (HT29 colon) was 1020 nM, the TGI (HT29 colon) was 2350 nM and the GI50 (MOLT-4 leukemia) was 1500 nM. For the same compound, the TGI (MOLT-4 leukemia) was greater than 50000 nM, the GI50 (UACC-257 melanoma) was 1740 nM and the TGI (UACC-257 melanoma) was 11700 nM.
